Patent US20100184596A1, “METHOD FOR THE CONTROL OF WEEDS IN TURF” (SYNGENTA CROP PROTECTION, INC., priority 2007, published 2010)

Experiments:
Assay type in all cases: in vivo
[1] = test system: Perennial ryegrass/fine fescue mix; experiment: Phytotoxicity via post emergence spray application (Table B2.4)
Procedure: (§1) The phytotoxicity of the compound of formula I to turfgrass species was tested. The compound was applied via post emergence spray to a range of warm and cool season turfgrass species at various rates and spray treatment treatment regimes. Percentage phytotoxicity assessments were taken at various timepoints.

Bermudagrass = experiment: Phytotoxicity via post emergence spray application (Table B2.5)
Procedure: as §1

[2] = test system: St. Augustinegrass v. Floratam; experiment: Phytotoxicity in combination with safeners, post emergence spray (Table B4.2); conditions: no safener, 100 g ai/ha
Procedure: The phytotoxicity to turfgrass of the compound of formula I in combination with various safeners was tested. The combinations were applied by post emergence spray application. Percentage phytotoxicity assessments were taken at various timepoints. The safeners tested in these trials were cloquintocet-mexyl, cyprosulfamide, a compound of formula 2.3, and isoxadifen-ethyl.

[3] = test system: Richardia scabra (Florida Pusley); experiment: Weed control via post emergence spray, in common centipedegrass (Table B5.2)
Procedure: The weed control efficacy of the compound of formula I was tested. The compound was applied via post emergence spray to a range of weeds, at various rates and spray treatment treatment regimes. Percentage weed control assessments were taken at various timepoints.

[4] = test system: clover and dandelion in turfgrass varieties; experiment: Example B1, conclusion in words; conditions: in Kentucky bluegrass, tall fescue and perennial ryegrass at the tested application rates
Procedure: The selectivity of the compound of formula I in turf (removal of grassy and broadleaf weeds) has been tested in turfgrass varieties selected from Kentucky bluegrass, tall fescue and perennial ryegrass and in […] selected from clover (an aggressive perennial weed) and dandelion (a weed of perennial horticultural crops and gardens which may also be a problem in some annual crops, particularly where reduced tillage is practiced).
The trials were conducted in Champaign, Ill., U.S. (Table B1.1) and Hudson, N.Y., U.S. (Table B1.2) under field conditions. Turfgrasses were maintained at approximately a 2.5″ height, like a home lawn. Mixed turf and weed stands were present. The test compounds were applied with a CO2 pressurized backpack sprayer by spraying in the form of an aqueous suspension (prepared from a wettable powder) in a concentration of 210 to 280 g/ha. The plots were then mowed and irrigated as needed. After 22 and 28 days respectively, the test is visually evaluated (100%=total damage to plant; 0%=no damage to plant).

[5] = test system: Bermudagrass v. Tifway 419; experiment: Phytotoxicity via granule application (Table B3.2)

Compound: COCCOCc1nc(C(F)(F)F)ccc1C(=O)C1=C(O)C2CCC(C2)C1=O (stereo not drawn) [Formula I, 4-Hydroxy-3-[2-(2-methoxyethoxymethyl)-6-trifluoromethylpyridine-3-carbonyl]-bicyclo[3.2.1]oct-3-en-2-one]
- % phytotoxicity ([1]; 1 appl, 140 g ai/ha, 6 DAT): 4.00%
- % phytotoxicity ([1]; 1 appl, 140 g ai/ha, 14 DAT): 18.75%
- % phytotoxicity ([1]; 1 appl, 140 g ai/ha, 21 DAT): 6.75%
- % phytotoxicity ([1]; 1 appl, 140 g ai/ha, 28 DAT): 2.50%
- % phytotoxicity ([1]; 1 appl, 140 g ai/ha, 34 DAT): 0.50%
- % phytotoxicity ([1]; 1 appl, 140 g ai/ha, 39 DAT): 0.00%
- % phytotoxicity ([1]; 1 appl, 140 g ai/ha, 49 DAT): 3.75%
- % phytotoxicity ([1]; 1 appl, 280 g ai/ha, 6 DAT): 4.50%
- % phytotoxicity ([1]; 1 appl, 280 g ai/ha, 14 DAT): 25.00%
- % phytotoxicity ([1]; 1 appl, 280 g ai/ha, 21 DAT): 6.25%
- % phytotoxicity ([1]; 1 appl, 280 g ai/ha, 28 DAT): 1.75%
- % phytotoxicity ([1]; 1 appl, 280 g ai/ha, 34 DAT): 1.25%
- % phytotoxicity ([1]; 1 appl, 280 g ai/ha, 39 DAT): 0.00%
- % phytotoxicity ([1]; 1 appl, 280 g ai/ha, 49 DAT): 0.00%
- % phytotoxicity ([1]; 2 appl, 140 g ai/ha, 6 DAT): 3.00%
- % phytotoxicity ([1]; 2 appl, 140 g ai/ha, 14 DAT): 20.00%
- % phytotoxicity ([1]; 2 appl, 140 g ai/ha, 21 DAT): 6.75%
- % phytotoxicity ([1]; 2 appl, 140 g ai/ha, 28 DAT): 2.75%
- % phytotoxicity ([1]; 2 appl, 140 g ai/ha, 34 DAT): 10.50%
- % phytotoxicity ([1]; 2 appl, 140 g ai/ha, 39 DAT): 8.75%
- % phytotoxicity ([1]; 2 appl, 140 g ai/ha, 49 DAT): 4.25%
- % phytotoxicity ([1]; 2 appl, 280 g ai/ha, 6 DAT): 3.50%
- % phytotoxicity ([1]; 2 appl, 280 g ai/ha, 14 DAT): 28.75%
- % phytotoxicity ([1]; 2 appl, 280 g ai/ha, 21 DAT): 11.00%
- % phytotoxicity ([1]; 2 appl, 280 g ai/ha, 28 DAT): 17.50%
- % phytotoxicity ([1]; 2 appl, 280 g ai/ha, 34 DAT): 22.50%
- % phytotoxicity ([1]; 2 appl, 280 g ai/ha, 39 DAT): 23.75%
- % phytotoxicity ([1]; 2 appl, 280 g ai/ha, 49 DAT): 10.00%
- % phytotoxicity (Bermudagrass; 1 appl, 140 g ai/ha, 7 DAT): 38.75%
- % phytotoxicity (Bermudagrass; 1 appl, 140 g ai/ha, 14 DAT): 18.75%
- % phytotoxicity (Bermudagrass; 1 appl, 140 g ai/ha, 21 DAT): 15.00%
- % phytotoxicity (Bermudagrass; 1 appl, 140 g ai/ha, 32 DAT): 13.75%
- % phytotoxicity (Bermudagrass; 1 appl, 140 g ai/ha, 35 DAT): 13.75%
- % phytotoxicity (Bermudagrass; 1 appl, 140 g ai/ha, 42 DAT): 7.50%
- % phytotoxicity (Bermudagrass; 1 appl, 140 g ai/ha, 49 DAT): 6.25%
- % phytotoxicity (Bermudagrass; 1 appl, 280 g ai/ha, 7 DAT): 38.75%
- % phytotoxicity (Bermudagrass; 1 appl, 280 g ai/ha, 14 DAT): 28.75%
- % phytotoxicity (Bermudagrass; 1 appl, 280 g ai/ha, 21 DAT): 12.50%
- % phytotoxicity (Bermudagrass; 1 appl, 280 g ai/ha, 32 DAT): 15.00%
- % phytotoxicity (Bermudagrass; 1 appl, 280 g ai/ha, 35 DAT): 15.00%
- % phytotoxicity (Bermudagrass; 1 appl, 280 g ai/ha, 42 DAT): 8.75%
- % phytotoxicity (Bermudagrass; 1 appl, 280 g ai/ha, 49 DAT): 6.25%
- % phytotoxicity (Bermudagrass; 2 appl, 140 g ai/ha, 7 DAT): 30.00%
- % phytotoxicity (Bermudagrass; 2 appl, 140 g ai/ha, 14 DAT): 26.25%
- % phytotoxicity (Bermudagrass; 2 appl, 140 g ai/ha, 21 DAT): 15.00%
- % phytotoxicity (Bermudagrass; 2 appl, 140 g ai/ha, 32 DAT): 68.75%
- % phytotoxicity (Bermudagrass; 2 appl, 140 g ai/ha, 35 DAT): 35.00%
- % phytotoxicity (Bermudagrass; 2 appl, 140 g ai/ha, 42 DAT): 15.00%
- % phytotoxicity (Bermudagrass; 2 appl, 140 g ai/ha, 49 DAT): 28.75%
- % phytotoxicity (Bermudagrass; 2 appl, 280 g ai/ha, 7 DAT): 42.50%
- % phytotoxicity (Bermudagrass; 2 appl, 280 g ai/ha, 14 DAT): 36.25%
- % phytotoxicity (Bermudagrass; 2 appl, 280 g ai/ha, 21 DAT): 18.75%
- % phytotoxicity (Bermudagrass; 2 appl, 280 g ai/ha, 32 DAT): 75.00%
- % phytotoxicity (Bermudagrass; 2 appl, 280 g ai/ha, 35 DAT): 65.00%
- % phytotoxicity (Bermudagrass; 2 appl, 280 g ai/ha, 42 DAT): 26.25%
- % phytotoxicity (Bermudagrass; 2 appl, 280 g ai/ha, 49 DAT): 30.00%
- % phytotoxicity ([2]; 9 DAT): 46.70%
- % phytotoxicity ([2]; 13 DAT): 50.00%
- % phytotoxicity ([2]; 19 DAT): 11.70%
- % phytotoxicity ([2]; 25 DAT): 5.00%
- % control ([3]; 1 appl, 140 g ai/ha, 5 DAT): 16.67%
- % control ([3]; 1 appl, 140 g ai/ha, 13 DAT): 25.00%
- % control ([3]; 1 appl, 140 g ai/ha, 21 DAT): 33.33%
- % control ([3]; 1 appl, 140 g ai/ha, 27 DAT): 33.33%
- % control ([3]; 1 appl, 140 g ai/ha, 35 DAT): 23.33%
- % control ([3]; 1 appl, 140 g ai/ha, 42 DAT): 16.67%
- % control ([3]; 1 appl, 140 g ai/ha, 61 DAT): 13.33%
- % control ([3]; 1 appl, 280 g ai/ha, 5 DAT): 20.00%
- % control ([3]; 1 appl, 280 g ai/ha, 13 DAT): 36.67%
- % control ([3]; 1 appl, 280 g ai/ha, 21 DAT): 46.67%
- % control ([3]; 1 appl, 280 g ai/ha, 27 DAT): 41.67%
- % control ([3]; 1 appl, 280 g ai/ha, 35 DAT): 38.33%
- % control ([3]; 1 appl, 280 g ai/ha, 42 DAT): 28.33%
- % control ([3]; 1 appl, 280 g ai/ha, 61 DAT): 38.33%
- % control ([3]; 2 appl, 140 g ai/ha, 5 DAT): 16.67%
- % control ([3]; 2 appl, 140 g ai/ha, 13 DAT): 20.00%
- % control ([3]; 2 appl, 140 g ai/ha, 21 DAT): 41.67%
- % control ([3]; 2 appl, 140 g ai/ha, 27 DAT): 33.33%
- % control ([3]; 2 appl, 140 g ai/ha, 35 DAT): 60.00%
- % control ([3]; 2 appl, 140 g ai/ha, 42 DAT): 53.33%
- % control ([3]; 2 appl, 140 g ai/ha, 61 DAT): 8.33%
- % control ([3]; 2 appl, 280 g ai/ha, 5 DAT): 16.67%
- % control ([3]; 2 appl, 280 g ai/ha, 13 DAT): 28.33%
- % control ([3]; 2 appl, 280 g ai/ha, 21 DAT): 46.67%
- % control ([3]; 2 appl, 280 g ai/ha, 27 DAT): 35.00%
- % control ([3]; 2 appl, 280 g ai/ha, 35 DAT): 61.67%
- % control ([3]; 2 appl, 280 g ai/ha, 42 DAT): 61.67%
- % control ([3]; 2 appl, 280 g ai/ha, 61 DAT): 16.67%
- selective weed control in turfgrass, in words [4]: suitable to combat undesired broadleaf weeds like clover and dandelion in turfgrass varieties
- % phytotoxicity ([5]; Granule A (inert), 112 g ai/ha, 15 DAT): 0.00%
- % phytotoxicity ([5]; Granule A (inert), 112 g ai/ha, 20 DAT): 0.00%
- % phytotoxicity ([5]; Granule A (inert), 112 g ai/ha, 28 DAT): 0.00%
- % phytotoxicity ([5]; Granule A (inert), 280 g ai/ha, 28 DAT): 0.00%
- % phytotoxicity ([5]; Granule B (fertiliser), 112 g ai/ha, 11 DAT): 4.00%
- % phytotoxicity ([5]; Granule B (fertiliser), 112 g ai/ha, 15 DAT): 0.00%
- % phytotoxicity ([5]; Granule B (fertiliser), 112 g ai/ha, 20 DAT): 0.00%
- % phytotoxicity ([5]; Granule B (fertiliser), 112 g ai/ha, 28 DAT): 0.00%
- % phytotoxicity ([5]; Granule B (fertiliser), 280 g ai/ha, 11 DAT): 15.00%
- % phytotoxicity ([5]; Granule B (fertiliser), 280 g ai/ha, 15 DAT): 3.30%
- % phytotoxicity ([5]; Granule B (fertiliser), 280 g ai/ha, 20 DAT): 1.30%
- % phytotoxicity ([5]; Granule B (fertiliser), 280 g ai/ha, 28 DAT): 0.00%
- % phytotoxicity ([5]; Spray, 112 g ai/ha, 7 DAT): 30.00%
- % phytotoxicity ([5]; Spray, 112 g ai/ha, 11 DAT): 18.30%
- % phytotoxicity ([5]; Spray, 112 g ai/ha, 15 DAT): 10.00%
- % phytotoxicity ([5]; Spray, 112 g ai/ha, 20 DAT): 3.00%
- % phytotoxicity ([5]; Spray, 112 g ai/ha, 28 DAT): 0.00%
- % phytotoxicity ([5]; Spray, 280 g ai/ha, 7 DAT): 66.70%
- % phytotoxicity ([5]; Spray, 280 g ai/ha, 11 DAT): 25.00%
- % phytotoxicity ([5]; Spray, 280 g ai/ha, 15 DAT): 10.00%
- % phytotoxicity ([5]; Spray, 280 g ai/ha, 20 DAT): 6.00%
- % phytotoxicity ([5]; Spray, 280 g ai/ha, 28 DAT): 0.00%
